Here are results for one compound from patent US10399971B2, “Compound for treating or preventing hyperuricemia or gout” (JIANGSU ATOM BIOSCIENCE AND PHARMACEUTICAL CO., LTD., priority 2015, dated 2019).

For series [1], the system named is hyperuricemia mice. As to the kind of experiment: Uric acid excretion test in hyperuricemia mice. Format: in vivo, Kunming mice. The note with it: 15 mg/kg oral. As to the method: Species: Kingming mice (Clean Level); body weights: 25 to 30 g; ages: 4 to 5 weeks; sex: male. These mice were purchased from Shanghai SLAC Laboratory Animal Co., Ltd. Certificate No.: SCXK (HU) 2012-2002. Animal quality certificate number: 2015000522173.
A certain amount of adenine and yeast extract powder was weighted and a certain amount of double distilled water was added. The mixture was stirred at about 60° C. for 40 min to give a suspension, which the concentration of yeast extract is 0.6 g/mL and the concentration of adenine is 12 mg/mL.
A suspension of 20 mg/mL potassium oxonate was prepared by mixing a certain amount of potassium oxonate with 0.5% CMC-Na solution before use.
Male Kunming mice were randomly divided into four groups: blank control group, model group, compound 74 group, and benzbromarone group. Each group has six mice. All mice fasted 2 to 3 h before use. The model group, benzbromarone group, and compound 74 group were orally given a suspension of yeast extract and adenine prepared above to reach the final dosage of 10 g/kg (body weight) of yeast extract and 200 mg/kg (body weight) of adenine, respectively. The blank control group was only given same volume of normal saline orally. After 2.5 h, all mice in compound 74 group and benzbromarone group were given 10 mL/kg of suspension of compound 74 (1.5 mg/mL) and 10 mL/kg of suspension of benzbromarone (1.5 mg/mL), respectively. The blank control group and model group were orally given same volume of 0.5% CMC-Na solution. All animals were treated in the same way for seven days by using administration methods described above. On the last day, after administration of a suspension of yeast extract and adenine for the model group, compound 74 group, and benzbromarone group, all mice in these three groups were given 12.5 mL/kg of potassium oxonate (20 mg/mL) by i.p. The blank control was only given same volume of 0.5% CMC-Na solution by i.p. After 30 min, compound 74 and benzbromarone were administrated orally to the mice at same dosages as above in compound 74 group and benzbromarone group, respectively. The blank control group and model group were orally given same volume of 0.5% CMC-Na solution.
Collection of urine samples: All mice were placed in metabolic cages with normal diet individually after giving test compounds on the last day. 24 h urine was collected and the urine volume was measured. The urine was centrifugated at 3000 rpm for 20 min and the supernatant was collected.
Detection of the concentration of uric acid of mice urine samples: uric acid concentration in samples was detected by using uric acid assay kit (phosphotungstic acid method) followed the procedures described in the instruction.

Series [2] concerns human normal liver cell line WRL-68. As to the kind of experiment: Cytotoxicity test on human normal liver cell line WRL-68 (Alamar Blue). In kind it is cell-based. The note with it: WRL68, WRL-68 cells, 120 h incubation, cell viability, read-out: half inhibitory concentration (IC50) against WRL-68. As to the method:
(§1) 2.1 The normal liver cell lines L-02 and WRL-68 were cultured with DMEM culture medium (containing 10% of fetal bovine serum, 100 U/mL of penicillin and 0.1 mg/mL of streptomycin) in an incubator under 5% CO2 at 37° C. until the cell density was about 90%, respectively.
(§2) 2.3 Tested compounds and benzbromarone at different concentration gradients were prepared by using the DMEM culture medium and added into wells at 100 μL/well as compounds wells. The DMEM culture medium was added into wells at 100 μL/well without tested compound as negative control wells.
(§3) This 10× Alamar Blue solution was diluted into 1× Alamar Blue solution with phenol red free DMEM culture medium before use.
(§4) 2.5 The cells were washed with PBS (0.1 M, pH=7.4) twice. The Alamar Blue solution was added into wells at 100 μL/well. 100 μL of Alamar Blue solution was added into wells without cells to serve as blank control wells. The 96-well plate was placed in an incubator under 5% CO2 at 37° C. for 3 h. Each concentration of compound was repeated three times during the test.
(§5) The fluorescence value of the cells containing compound is the F(test compound); the fluorescence value of the cells without compound as blank control is the F(blank control); the fluorescent value of the cells from negative control group is F(negative control). The average value and standard deviation of cell viability of three repeated concentrations was calculated by the following formula: […]
(§6) 2.7 The half inhibitory concentration (IC50) of the compound for the cells L-02 and WRL-68 was obtained from the cell viability by Prism Graph software.
(In general: Alamar Blue is a resazurin reagent that responds to reducing activity.)

Series [3] concerns the target T1, hURAT1 (Homo sapiens, UniProt Q96S37).
T1 sequence (Q96S37 1-553): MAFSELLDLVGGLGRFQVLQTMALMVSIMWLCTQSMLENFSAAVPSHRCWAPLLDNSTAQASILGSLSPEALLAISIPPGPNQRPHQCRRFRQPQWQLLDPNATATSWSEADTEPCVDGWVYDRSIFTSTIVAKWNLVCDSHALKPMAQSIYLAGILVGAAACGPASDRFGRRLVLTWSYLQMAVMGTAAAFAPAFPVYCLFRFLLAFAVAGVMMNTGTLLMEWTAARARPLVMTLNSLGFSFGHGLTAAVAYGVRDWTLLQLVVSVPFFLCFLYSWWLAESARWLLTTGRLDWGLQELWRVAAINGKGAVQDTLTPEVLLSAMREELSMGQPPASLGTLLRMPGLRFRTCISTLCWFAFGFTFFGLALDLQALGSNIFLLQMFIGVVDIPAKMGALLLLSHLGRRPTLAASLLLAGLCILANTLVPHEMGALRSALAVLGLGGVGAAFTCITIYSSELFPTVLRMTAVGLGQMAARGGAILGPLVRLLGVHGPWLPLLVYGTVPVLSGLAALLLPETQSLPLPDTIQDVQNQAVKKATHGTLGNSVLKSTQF
As to the kind of experiment: Inhibition assay of uric acid transport in HEK293-hURAT1 transfection cell line. In kind it is cell-based. The following applies: read-out: Inhibitory rates of uric acid transport, ±SD (%). On the procedure:
2.1 Construction of a HEK293 stable cell line with high expression of hURAT1: The plasmid pCMV6-hURAT1 was transfected into HEK293 cells, then the stable strain was obtained by the G418 (final concentration 500 μg/mL) resistance screening, which is the high expression of hURAT1 transporter membrane protein.
2.2 To a coated 24-well plate was added 200 μL of 0.1 mg/mL poly-lysine per well and the plate was left overnight. Poly-lysine was removed from wells. The wells were cleaned thoroughly with aseptic water and dried for use.
2.3 To the above coated 24 well plate was added HEK293-hURAT1 stable cells (2×10^5 cells per well). The cells was cultured at 37° C. under 5% CO2 for 3 days.
The solution was fully mixed to give HBSS buffer (pH value: 7.4). The buffer was stored at −20° C.
2.5 The HBSS buffer was warmed to 37° C. in a water bath. Washed cells with HBSS twice, added 160 μL of HBSS and 20 μL test compound per well. The final concentration of tested compound per well is 500 nM. The blank control well contains only 180 μL of HBSS without tested compound. The plate was placed at room temperature for 30 min.
2.6 To each well was added 20 μL of 50 μM ^14C-Uric acid. The plate was placed at room temperature for 20 min.
2.7 The solution in each well was removed and the cells in each well were washed with pre-cooled HBSS buffer. To each well was added 0.2 M NaOH to dissolve the cells. The solution containing cell fragments was collected and the right amount of scintillation liquid was added.
The formula for calculating the inhibitory rate of uric acid transport for compounds was shown as below: […]

The nature of series [4]: Acute toxicity of single oral dose in SD rats.
From the text: (§7) Rats were randomly divided into group A1, group B1 and blank control group. Each group has 10 of rats with half male and half female.
Series [5] in a line: in vivo. The note with it: both, SD, rat, po.
From the text: as §7
Series [6] deals with human normal liver cell line L-02. As to the kind of experiment: Cytotoxicity test on human normal liver cell line L-02 (Alamar Blue). Format: cell-based. The following applies: L02, L-02 cells, 120 h incubation, cell viability, read-out: half inhibitory concentration (IC50) against L-02. As to the method:
as §1, §2, §3, §4, §5, §6

As to `CCc1oc2ccccc2c1C(=O)c1cc(Br)c(O)c(Br)c1` [BBR, (3,5-dibromo-4-hydroxyphenyl)(2-ethyl-benzofuran-3-yl)methanone, reference compound], in series [1] (increase over model group), the “uric acid excretion increased compared with the model group” value is recorded as “about 25.35%”. Besides, in series [1] (model group set to 100%), the “Changes of uric acid excretion (compared with model group, %)” value is reported as 125.35%. In addition, the “Uric acid in urine for 24 h, ±SD” value in series [1] (seven days, 6 mice) was 13.40 ± 1.59 mmol. Also, the values for the IC50 in series [2] and in series [6] were 45.5 µM and 40.2 µM, respectively. Besides, the inhibition at 0.5 µM in series [3] came out at 55.6 ± 1.42%. Besides, the Death rate in series [4] (SD rats, single oral dose, 74 at 5.0 g/kg, BBR at 0.14 g/kg, 10 rats per group, 14 days observation) is 0/10. Moreover, the “death of rats in pre-experiment of acute toxicity” value in series [4] (pre-experiment, compound 74 at 5 g/kg (highest dose), benzbromarone at 0.14 g/kg) is listed as “no death of rats was found”. In addition, the MTD at 14 days in series [5] was found to be 140 mg/kg.
